Data on two molecules can be found in ChEMBL document CHEMBL4480398, “1,2,4-Triazolo[1,5-a]pyrimidines in drug design” (Eur J Med Chem, 2019).

Converted amounts (≈) assume the structure as drawn.

Holding throughout (type): functional
The subject of assay [1] is Mycobacterium tuberculosis. As to the kind of experiment: Antibacterial activity against multidrug-resistant Mycobacterium tuberculosis M23 after 9 days by inverted microscopic analysis. The following applies: M23, 216 h.
For assay [2], the system named is Mycobacterium tuberculosis. The assay can be described thus: Antibacterial activity against multidrug-resistant Mycobacterium tuberculosis M22 after 9 days by inverted microscopic analysis. As to conditions: M22, 216 h.
In assay [3] the test system is Mycobacterium tuberculosis. The assay can be described thus: Antibacterial activity against extensively drug resistant Mycobacterium tuberculosis X59 after 9 days by inverted microscopic analysis. The following applies: X59, 216 h.
The subject of assay [4] is Mycobacterium tuberculosis. The assay can be described thus: Antibacterial activity against extensively drug resistant Mycobacterium tuberculosis X24 after 9 days by inverted microscopic analysis. The following applies: X24, 216 h.
The subject of assay [5] is Mycobacterium tuberculosis. As to the kind of experiment: Antibacterial activity against multidrug-resistant Mycobacterium tuberculosis P887 after 9 days by inverted microscopic analysis. The following applies: P887, 216 h.

With `Cc1ccn2nc(S(=O)(=O)Nc3c(Br)ccc4cccnc34)nc2n1`, the minimum inhibitory concentration (MIC) in assay [1], in assay [2], in assay [3], in assay [4] and in assay [5] was 0.5 µM (≈ 0.21 µg/mL) in each case.

Regarding `Cc1nc2nc(S(=O)(=O)Nc3c(Br)ccc4cccnc34)nn2c2c1CCC2`, the MIC in assay [1], in assay [2], in assay [3], in assay [4] and in assay [5] was 2 µM (≈ 0.919 µg/mL) throughout.
